Among the data in BindingDB's records for doi:10.7270/Q2BK19S0 (The Scripps Research Institute Molecular Screening Center, 2010) are IC50 values, retold here.

The assay addresses Photoreceptor-specific nuclear receptor (Homo sapiens, UniProt Q9Y5X4). Nature of the assay: NR2E3 inverse agonists, dose response, biochemical, TR-FRET (AID 463256). In general terms: Time-resolved FRET reads energy transfer from a long-lived donor to a nearby acceptor.

Chain of Photoreceptor-specific nuclear receptor (Q9Y5X4 whole entry): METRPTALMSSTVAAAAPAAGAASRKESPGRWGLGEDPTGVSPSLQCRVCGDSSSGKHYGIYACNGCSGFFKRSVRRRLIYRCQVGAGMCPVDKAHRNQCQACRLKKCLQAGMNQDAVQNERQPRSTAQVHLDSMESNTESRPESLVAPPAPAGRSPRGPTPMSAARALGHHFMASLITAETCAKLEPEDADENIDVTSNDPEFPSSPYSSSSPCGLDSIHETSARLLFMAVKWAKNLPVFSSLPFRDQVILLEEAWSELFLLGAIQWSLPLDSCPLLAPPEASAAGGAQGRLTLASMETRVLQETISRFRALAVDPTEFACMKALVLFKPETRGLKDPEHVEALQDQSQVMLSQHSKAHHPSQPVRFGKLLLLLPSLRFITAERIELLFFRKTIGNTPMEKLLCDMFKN

`COc1ccc(-n2cc(O)c(-c3nc(-c4ccccc4)cs3)c2N)cc1` [5-amino-1-(4-methoxyphenyl)-4-(4-phenyl-1,3-thiazol-2-yl)-2H-pyrrol-3-one]: the IC50 was 13.4 µM.

As a reminder, the IC50 is the concentration at which inhibition is half-maximal.
